Experimental data from patent publication US20100206318A1, “FILTER FOR A TOBACCO PRODUCT” (BIOHIT OYJ, priority 2007, published 2010).

Experiment: acetaldehyde in saliva of testees during smoking through cigarette holder with filter (headspace gas chromatography)
Type: in vivo, human
Conditions: FIG. 1
From the text: The entire filter of Marlboro Red was removed or, in some tests, 2-3 mm of the original filter was left in the cigarette.
In the tests, ready commercial cigarette holders/mouthpieces of Denicotea, www.denicotea.de were used. In the cigarette holders/mouthpieces, plastic cylinder-shaped “containers” were used, the filtering material being packed in the containers. The original content (intended for the removal of nicotine) of the containers was removed and replaced with the material that was used in the study. The outer dimensions of the container were: diameter 8 mm and length 35 mm.
Cellulose wadding (c. 100 mg), filter paper (Whattman), Commercial filters: Smart (the importer: Altadia Finland Oy) and Ventti (Philip Morris Finland Oy),
Cysteine was dissolved in distilled water, 30-180 mg of L-Cysteine/1 ml. The manufacturer: Fluka, 30089.
The filter material that had been packed in plastic cylinders was moistened with a water-cysteine solution (50-250 μl), and the filter container thus made was placed in the Denicotea cigarette holder. After this, the testees smoked the cigarettes that had been placed in the mouthpieces. During smoking, saliva samples were collected from those participating in the tests and the acetaldehyde in the saliva was analyzed by gas chromatography, Perkin-Elmer, HS40, headspace Gas Chromatograph.

In the case of `N[C@@H](CS)C(=O)O` [cysteine, L-Cysteine], the “filterability, dependence on amount” value is reported as “dependent on the amount of cysteine”.
